Source: patent US11723890B2, “Methods of treatment using an mTORC1 modulator” (Navitor Pharmaceuticals, Inc., priority 2019, dated 2023)

Tested on: subjects with TRD
Test: Example 1 Part B: preliminary efficacy on depression rating scales in subjects with TRD
Assay type: in vivo, human
Settings: for Effect size, HAM-D6 for ≤55 years old / Effect size, HAM-D6 for ≥36 MADRS at baseline / Effect size, CGI-S for ≤55 years old / Effect size, MADRS Total for ≤55 years old / Effect size, CGI-S for ≥36 MADRS at baseline / Effect size, MADRS Total for ≥36 MADRS at baseline / Effect size, IDS-SR Psychomotor Domain / Effect size, MADRS-06 (core) / Effect size, MADRS-08 (core-plus): post-hoc; for Effect size, HAM-D6 for ≤55 years old / Effect size, CGI-S for ≤55 years old / Effect size, MADRS Total for ≤55 years old: N = 14; for Effect size, HAM-D6 for ≥36 MADRS at baseline / Effect size, CGI-S for ≥36 MADRS at baseline / Effect size, MADRS Total for ≥36 MADRS at baseline: N = 16
Procedure: Primary Efficacy Endpoint: The primary efficacy endpoint was the difference between the compound A group and the placebo group in change from baseline in the Montgomery Asberg Depression Rating Scale (MADRS) total score at Day 2 (24 hours post dose).
Secondary Efficacy Endpoints: Secondary preliminary efficacy endpoints were the difference between the compound A group and the placebo group in: • change from baseline in the MADRS total score at each time point • change from baseline in the Hamilton Depression Rating Scale-6 Item (HAM-D6) total score at each time point • change from baseline in the IDS-SR30 total score and domain scores at each time point • change from baseline in the Clinical Global Impression-Severity (CGI-S) score at each time point
Preliminary Efficacy Evaluations: Other psychiatric evaluations were performed to assess preliminary efficacy in Part B only. These evaluations included the Montgomery-Asberg Depression Rating Scale (MADRS), the Hamilton Depression Rating Scale-6 Item (HAM-D6), the Clinical Global Impression-Severity (CGI-S), and the Inventory of Depressive Symptomatology (30-item, self-rated version) (IDS-SRN). Montgomery-Asberg Depression Rating Scale (MADRS).
The MADRS is a clinician-administered scale used to assess the range of symptoms that are most frequently observed in patients with major depression. The scale includes 10 items, each scored on a scale of 0 to 6. The MADRS was administered centrally by a third-party independent rater blinded to protocol, visit, and treatment.
Hamilton Depression Rating Scale-6 Item (HAM-D6): The HAM-D6 is a clinician-administered scale used to assess key domains of depressive symptomatology. The HAM-D6 was derived from the original 17-item version of the scale (HAM-D17). Five of the six items are scored on a scale of 0 to 4, and one item is scored on a scale of 0 to 2.
Clinical Global Impression-Severity (CGI-S): The CGI-S is a 7-point clinician-administered scale used to assess the severity of the patient's illness at the time of assessment relative to the clinician's past experience with patients who have the same diagnosis.
Inventory of Depressive Symptomatology (30-Item, Self-Rated Version) (IDS-SR30): The IDS-SR30 is a self-rated scale used to assess the severity of depressive symptomatology. The scale includes 30 items, each scored on a scale of 0 to 3.
The MADRS total score was centrally administered. The HAM-D6 was site-administered. The CGI-S was site physician administered. The IDS-SR was patient self-administered. MADRS-6 and MADRS-8 scores were then extrapolated post hoc from the MADRS total scores.
MADRS-10 items include apparent sadness, reported sadness, inner tension, reduced sleep, reduced appetite, concentration difficulties, lassitude, inability to feel, pessimistic thoughts, and suicidal thoughts. MADRS-6 items include apparent sadness, reported sadness, inner tension, lassitude, inability to feel, and pessimistic thoughts. MADRS-8 items include apparent sadness, reported sadness, inner tension, concentration difficulties, lassitude, inability to feel, pessimistic thoughts, and suicidal thoughts. HAM-D6 items include depressed mood, low self-esteem/guilt, work and interests, psychomotor retardation, psychic anxiety, and somatic symptoms.
When determining clinically significant antidepressant effect, it is recommended to use standardized effect size statistics. The correct use of depression rating scales in clinical trials of antidepressants is to indicate the effect size of the specific items of depression and to accept an effect size of 0.40 or higher as being the clinically significant effect. An effect size of ≥0.2 indicates early improvement. An effect size of ≥0.4 indicates a clinical response.

[1] = single 2400 mg vs placebo, 12 h
[2] = single 2400 mg vs placebo, 24 h
[3] = single 2400 mg vs placebo, 24 h, N = 31
[4] = single 2400 mg vs placebo, 24 h, prespecified, N = 31
[5] = single 2400 mg vs placebo, 36 h
[6] = single 2400 mg vs placebo, 48 h
[7] = single 2400 mg vs placebo, 48 h, N = 31
[8] = single 2400 mg vs placebo, 48 h, prespecified, N = 31
[9] = single 2400 mg vs placebo, 72 h
[10] = single 2400 mg vs placebo, 72 h, N = 31
[11] = single 2400 mg vs placebo, 72 h, prespecified, N = 31
[12] = single 2400 mg, 24 hours post dose

CC(C)(C[C@H](N)C(=O)O)C(F)F [Compound A, (S)-2-amino-5,5-difluoro-4,4-dimethylpentanoic acid]
duration of numerical benefits on HAM-D6 (single 2400 mg): 24 to 72 h
onset of efficacy on HAM-D6 (single 2400 mg): as early as two hours post-dose
MADRS items with greater impact than placebo (single 2400 mg vs placebo): inner tension, concentration, pessimistic thoughts, and inability to feel
Effect size, HAM-D6 for ≤55 years old (single 2400 mg vs placebo, 2 h): 0.8
Effect size, HAM-D6 for ≥36 MADRS at baseline (single 2400 mg vs placebo, 2 h): 1.0
Effect size, HAM-D6 (single 2400 mg vs placebo, 2 h, prespecified, N = 31): 0.6
Effect size, HAM-D6 for ≤55 years old (single 2400 mg vs placebo, 4 h): 1.0
Effect size, HAM-D6 for ≥36 MADRS at baseline (single 2400 mg vs placebo, 4 h): 1.1
Effect size, HAM-D6 (single 2400 mg vs placebo, 4 h, prespecified, N = 31): 0.8
Effect size, HAM-D6 for ≤55 years old (single 2400 mg vs placebo, 8 h): 1.1
Effect size, HAM-D6 for ≥36 MADRS at baseline (single 2400 mg vs placebo, 8 h): 0.8
Effect size, HAM-D6 (single 2400 mg vs placebo, 8 h, prespecified, N = 31): 0.7
Effect size, HAM-D6 for ≤55 years old [1]: 1.3
Effect size, HAM-D6 for ≥36 MADRS at baseline [1]: 0.9
Effect size, HAM-D6 (single 2400 mg vs placebo, 12 h, prespecified, N = 31): 0.8
Effect size, CGI-S for ≤55 years old [2]: 0.2
Effect size, HAM-D6 for ≤55 years old [2]: 0.9
Effect size, MADRS Total for ≤55 years old [2]: 0.6
Effect size, CGI-S for ≥36 MADRS at baseline [2]: 0.2
Effect size, HAM-D6 for ≥36 MADRS at baseline [2]: 0.8
Effect size, MADRS Total for ≥36 MADRS at baseline [2]: 0.4
Effect size, IDS-SR Psychomotor Domain [3]: 0.8
Effect size, MADRS-06 (core) [3]: 0.3
Effect size, MADRS-08 (core-plus) [3]: 0.3
Effect size, CGI-S Change from baseline [4]: -0.1
Effect size, HAM-D6 [4]: 0.5
Effect size, IDS-SR 30 Total Score [4]: 0.3
Effect size, MADRS Total Score (prelim. primary @24 h) [4]: 0.1
Effect size, HAM-D6 for ≤55 years old [5]: 1.3
Effect size, HAM-D6 for ≥36 MADRS at baseline [5]: 0.9
Effect size, HAM-D6 (single 2400 mg vs placebo, 36 h, prespecified, N = 31): 0.5
Effect size, CGI-S for ≤55 years old [6]: 0.4
Effect size, HAM-D6 for ≤55 years old [6]: 1.2
Effect size, MADRS Total for ≤55 years old [6]: 0.6
Effect size, CGI-S for ≥36 MADRS at baseline [6]: 0.7
Effect size, HAM-D6 for ≥36 MADRS at baseline [6]: 0.9
Effect size, MADRS Total for ≥36 MADRS at baseline [6]: 0.3
Effect size, IDS-SR Psychomotor Domain [7]: 0.3
Effect size, MADRS-06 (core) [7]: 0.3
Effect size, MADRS-08 (core-plus) [7]: 0.3
Effect size, CGI-S Change from baseline [8]: 0.1
Effect size, HAM-D6 [8]: 0.5
Effect size, IDS-SR 30 Total Score [8]: 0.3
Effect size, MADRS Total Score [8]: 0.2
Effect size, CGI-S for ≤55 years old [9]: 0.2
Effect size, HAM-D6 for ≤55 years old [9]: 1.1
Effect size, MADRS Total for ≤55 years old [9]: 0.3
Effect size, CGI-S for ≥36 MADRS at baseline [9]: 1.0
Effect size, HAM-D6 for ≥36 MADRS at baseline [9]: 0.8
Effect size, MADRS Total for ≥36 MADRS at baseline [9]: 0.3
Effect size, IDS-SR Psychomotor Domain [10]: 0.6
Effect size, MADRS-06 (core) [10]: 0.1
Effect size, MADRS-08 (core-plus) [10]: 0.1
Effect size, CGI-S Change from baseline [11]: 0.2
Effect size, HAM-D6 [11]: 0.4
Effect size, IDS-SR 30 Total Score [11]: 0.3
Effect size, MADRS Total Score [11]: -0.1
MADRS concentration scores [12]: marked improvement
MADRS item Apparent Sadness, % CFB [12]: −12.3%
MADRS item Apparent Sadness, CFB [12]: −0.56
MADRS item Apparent Sadness, score Day 1 [12]: 4.00
MADRS item Concentration, % CFB [12]: −23.1%
MADRS item Concentration, CFB [12]: −0.94
MADRS item Concentration, score Day 1 [12]: 3.13
MADRS item Inability to Feel, % CFB [12]: −12.9%
MADRS item Inability to Feel, CFB [12]: −0.56
MADRS item Inability to Feel, score Day 1 [12]: 3.81
MADRS item Inner Tension, % CFB [12]: −40.5%
MADRS item Inner Tension, CFB [12]: −1.06
MADRS item Inner Tension, score Day 1 [12]: 1.56
MADRS item Lassitude, % CFB [12]: −1.8%
MADRS item Lassitude, CFB [12]: −0.06
MADRS item Lassitude, score Day 1 [12]: 3.44
MADRS item Pessimistic Thoughts, % CFB [12]: −23.3%
MADRS item Pessimistic Thoughts, CFB [12]: −0.63
MADRS item Pessimistic Thoughts, score Day 1 [12]: 2.06
MADRS item Reduced Appetite, % CFB [12]: −14.3%
MADRS item Reduced Appetite, CFB [12]: −0.44
MADRS item Reduced Appetite, score Day 1 [12]: 2.63
MADRS item Reduced Sleep, % CFB [12]: −7.4%
MADRS item Reduced Sleep, CFB [12]: −0.31
MADRS item Reduced Sleep, score Day 1 [12]: 3.94
MADRS item Reported Sadness, % CFB [12]: −19.2%
MADRS item Reported Sadness, CFB [12]: −0.94
MADRS item Reported Sadness, score Day 1 [12]: 3.94
MADRS item Suicidal Thoughts, % CFB [12]: −9.1%
MADRS item Suicidal Thoughts, CFB [12]: −0.06
MADRS item Suicidal Thoughts, score Day 1 [12]: 0.63
MADRS-10 TOTAL SCORE, CFB [12]: −5.5
Change in HAM-D6 Total Score (single 2400 mg, at 2 h): −2.0
Change in HAM-D6 Total Score, Difference Compound A vs Placebo (single 2400 mg, at 2 h): −1.3
Change in HAM-D6 Total Score (single 2400 mg, at 4 h): −2.6
Change in HAM-D6 Total Score, Difference Compound A vs Placebo (single 2400 mg, at 4 h): −1.8
Change in HAM-D6 Total Score (single 2400 mg, at 8 h): −2.9
Change in HAM-D6 Total Score, Difference Compound A vs Placebo (single 2400 mg, at 8 h): −1.7
Change in HAM-D6 Total Score (single 2400 mg, at 12 h): −3.9
Change in HAM-D6 Total Score, Difference Compound A vs Placebo (single 2400 mg, at 12 h): −2.7
Change in HAM-D6 Total Score (single 2400 mg, at 24 h): −3.5
Change in HAM-D6 Total Score, Difference Compound A vs Placebo (single 2400 mg, at 24 h): −1.5
Change in HAM-D6 Total Score (single 2400 mg, at 36 h): −4.3
Change in HAM-D6 Total Score, Difference Compound A vs Placebo (single 2400 mg, at 36 h): −1.8
Change in HAM-D6 Total Score (single 2400 mg, at 48 h): −3.7
Change in HAM-D6 Total Score, Difference Compound A vs Placebo (single 2400 mg, at 48 h): −1.3
Change in HAM-D6 Total Score (single 2400 mg, at 72 h): −4.1
Change in HAM-D6 Total Score, Difference Compound A vs Placebo (single 2400 mg, at 72 h): −1.3
HAM-D6 scores (single dose 2400 mg, FIG. 2): rapid and sustained efficacy
